From patent publication US6008234A, “Benzamidine derivatives substituted by cyclic amino acid and cyclic hydroxy acid derivatives and their use as anti-coagulants” (Berlex Laboratories, Inc., priority 1997, dated 1999)
Non-standard residues stand in square brackets, D forms with d. Residues, ends and D or L forms follow the SMILES beside them. *: point of attachment. pNA = O=[N+]([O-])c1ccc(N*)cc1

What was measured:
[1] = molecular target: T1, Human thrombin (Homo sapiens, UniProt P00734); test: In vitro chromogenic assay for thrombin (S2302 cleavage); format: biochemical; conditions: 20 nM thrombin; pH 7.5; ambient temperature; substrate concentration stated equal to Km
T1 construct: Human thrombin stock solution; purchased Enzyme Research Lab
Description: (§1) The activities were determined as an initial rate of cleavage of the peptide p-nitroanilide by the enzyme. The cleavage product, p-nitroaniline, absorbs at 405 nm with a molar extinction coefficient of 9920 M^-1 cm^-1.
(§2) 50 mM TrisHCl, 150 mM NaCl, 2.5 mM CaCl2, and 0.1% polyethylene glycol 6000, pH 7.5.
2. Human thrombin stock solution: Stored at -80° C. (working solution (2×): 1200 ng/mL or 40 nM in assay buffer, prepare prior to use).
2. S2302 (Thrombin assay) stock solution: 10 mM in deionized H2 O, stored at 4° C. (working solution (4×): 1200 μM in assay buffer).
Assays were performed in 96-well microtiter plates in a total volume of 200 μl. […] Concentrations of the standard inhibitor compound in the assay were from 5 μM to 0.021 μM in 1 to 3 dilution. Concentration of the test compounds in the assay typically were from 10 μM to 0.041 μM in 1 to 3 dilution. For potent test compounds, the concentrations used in the factor Xa assay were further diluted 100 fold (100 nM to 0.41 nM) or 1000 fold (10 nM to 0.041 nM). […]
(§3) The enzyme kinetics were measured at 405 nm at 10 seconds intervals for five minutes in a THERMOmax plate reader at ambient temperature.
(§4) Enzyme rates were calculated as mOD/min based on the first two minutes readings. The IC50 values were determined by fitting the data to the log-logit equation (linear) or the Morrison equation (non-linear) with an EXCEL spread-sheet. […]

[2] = molecular target: T2, Human tissue plasminogen activator (tPA) (Two chains, Sigma) (Homo sapiens, UniProt P00750); test: In vitro chromogenic assay for tPA (S2288 cleavage); format: biochemical; conditions: 10 nM tPA; pH 7.5; ambient temperature; substrate concentration stated equal to Km
T2 construct: purchased Sigma
Description: as §1, §2
3. Human tissue plasminogen activator (tPA) (Two chains, Sigma) stock solution: 1 mg/mL, stored at -80° C. (working solution (2×): 1361 ng/mL in assay buffer, prepare prior to use).
3. S2288 (tPA assay) stock solution: 10 mM in deionized H2 O, stored at 4° C. (working solution (4×): 1484 μM in assay buffer).
Assays were performed in 96-well microtiter plates in a total volume of 200 μl. […] Concentrations of the standard inhibitor compound in the assay were from 5 μM to 0.021 μM in 1 to 3 dilution. Concentration of the test compounds in the assay typically were from 10 μM to 0.041 μM in 1 to 3 dilution. […]
as §3, §4

T2 sequence (P00750 311-562 limits assumed): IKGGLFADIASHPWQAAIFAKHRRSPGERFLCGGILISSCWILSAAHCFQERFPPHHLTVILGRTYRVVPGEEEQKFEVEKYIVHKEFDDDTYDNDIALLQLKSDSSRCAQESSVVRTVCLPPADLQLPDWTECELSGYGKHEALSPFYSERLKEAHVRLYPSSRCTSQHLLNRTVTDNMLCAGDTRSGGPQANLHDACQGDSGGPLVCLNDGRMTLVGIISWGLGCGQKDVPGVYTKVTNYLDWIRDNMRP
T2 sequence (P00750 36-310 limits assumed): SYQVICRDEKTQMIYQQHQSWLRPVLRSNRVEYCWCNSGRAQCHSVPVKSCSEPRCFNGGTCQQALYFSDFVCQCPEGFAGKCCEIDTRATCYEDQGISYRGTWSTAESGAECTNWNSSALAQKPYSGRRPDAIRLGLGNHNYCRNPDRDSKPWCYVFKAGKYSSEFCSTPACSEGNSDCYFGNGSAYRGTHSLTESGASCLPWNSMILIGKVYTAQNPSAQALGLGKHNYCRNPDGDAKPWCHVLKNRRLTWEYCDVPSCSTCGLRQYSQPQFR

Km [1] | Km [2] | Compound
300 µM |  | N=C(N)NCCC[C@H](NC(=O)[C@H](Cc1ccccc1)NC(=O)[C@H]1CCCN1)C(=O)Nc1ccc([N+](=O)[O-])cc1 [Example S2302] (H-[dP]-Phe-Arg-pNA)
 | 371 µM | CC[C@@H](C)[C@@H](N)C(=O)N1CCC[C@H]1C(=O)N[C@@H](CCCN=C(N)N)C(=O)Nc1ccc([N+](=O)[O-])cc1 [Example S2288] (H-[dI]-Pro-Arg-pNA)
